# Results from patent publication US10300143B2, “Compositions for treating cancer and methods for making the same” (THE BRIGHAM AND WOMEN'S HOSPITAL, INC., priority 2012, dated 2019).
# System: K-Ras^LSL/+/Pten^fl/fl ovarian cancer
# Experiment: Efficacy study of PI103-SNPs in murine ovarian cancer tumor model
# Assay type: in vivo, mice
# Conditions: after 3 doses, 5 mg/kg
# Protocol: Ovarian adenocarcinomas were induced in genetically engineered K-Ras^LSL/+/Pten^fl/fl mice via intrabursal delivery of adenovirus-carrying Cre recombinase. Tumor cells were also engineered to express luciferase once activated by Adeno-Cre to make tumor imaging possible before and after drug treatment. Once mice developed medium to large tumors, they were placed into one of four treatment groups (vehicle, Free-PI-103 5 mg/kg, PI-103-SNP 5 mg/kg, and iRGD-PI103-SNP 5 mg/kg) and all drugs were administered via tail vein injection. Tumor imaging in vivo was performed using an 1VIS Lumina II Imaging System. Quantification of bioluminescence was achieved by using Living Image Software 3.1 (Caliper Life Sciences). Images were taken a day prior to initial treatment (day 0, baseline image), after 3 treatments, and 1 d after 5 treatments.
# Ovarian adenocarcinomas were induced in genetically engineered K-ras isu+/Pten mice via intrabursal delivery of adenovirus-carrying Cre recombinase. Tumor cells were also engineered to express luciferase once activated by Adeno-Cre to make tumor imaging possible before and after drug treatment. […] Quantification of bioluminescence was achieved by using Living Image Software 3.1™ (Caliper Life Sciences). […]
compound,measurement,value
Oc1cccc(-c2nc(N3CCOCC3)c3oc4ncccc4c3n2)c1 [PI103],tumor luciferase bioluminescence,significant tumor regression as compared to vehicle control
